Reference: the supplement of paper PMC8837787

Test system: Saccharomyces cerevisiae ABC16-Green Monster
Test: growth inhibition at single dose (up to 150 µM), below the 70% cut-off for dose-response; higher = more potent
Settings: 18 h; 30 °C; YPD
Method in brief: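 Drug-sensitive S. cerevisiae ABC16-Green Monster cells were grown overnight in YPD at 30 °C and diluted to log phase (OD600 0.1–0.2). Each library compound was added at one dose of 150 µM to 200 µl culture per well in 96-well plates, in biological duplicates, with untreated cultures alongside. OD600 was read at 0 h and after 18 h at 30 °C. The value is percent growth inhibition; compounds below 70% in both replicates were not taken to dose-response.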

SMILES	growth inhibition at single dose [%]
Cc1cccc2nc(C(=O)Nc3ccc4c(c3)nc3n4CCCCC3)cn12	< 70
FC(F)(F)c1nnc2ccc(Cl)nn12	< 70
Cc1cc(C)c2c(c1)OCN(Cc1ccccc1Cl)C2	< 70
O=C(Nc1nc(-c2ccccn2)cs1)c1ccc(-n2cncn2)cc1	< 70
CNC(=O)c1ccc(CN(Cc2ccc(SC)cc2)Cc2ccco2)cc1	< 70
c1ccc2sc(-c3nc4ccccc4s3)nc2c1	< 70
Cc1cc(C(=O)Nc2nc3ccccc3s2)c(C)n1C(C)C	< 70
c1ccc(Cn2c(N=Nc3c(Nc4ccccc4)ccc4ccccc34)nc3ccccc32)cc1	< 70
CC(C)CNC(=O)c1c(N)n(CCc2ccccc2F)c2nc3ccccc3nc12	< 70
Oc1c(CN2CCN(c3ccccc3F)CC2)cc(Br)c2cccnc12	< 70
O=C(NC1=NCCS1)c1sc2cc(F)ccc2c1Cl	< 70
Cc1ccn2cc(C(=O)Nc3nnc(CC(C)C)s3)nc2c1	< 70
Cc1ccc(O)c(C(=O)c2c[nH]c(-c3nc4ccccc4[nH]3)c2)c1	< 70
COc1ccc(-c2cc(NC(=O)c3ccc(F)cc3Cl)ccc2OC)cc1	< 70
C=CCn1c(C)cc(C(=O)CSc2nc3ccccc3s2)c1C	< 70
O=C(Nc1cccc([N+](=O)[O-])c1)c1[nH]nc2ccccc12	< 70
COc1ccc(C(=O)Nc2nonc2-c2ccc(OC)c(OC)c2)cc1Cl	< 70
OCC1CCCN(c2nn3cc(-c4ccccc4)nc3s2)C1 (centres undefined)	< 70
COc1cccn2c(C(=O)N3CCCCC3)c(C(F)(F)F)nc12	< 70
COc1ccc(C2C(C(=O)Nc3cccc(OC)c3)c3ccccc3C(=O)N2C2CCCCC2)cc1 (centres undefined)	< 70
c1ccc(Oc2ccc(-c3cc(CN4CCOCC4)[nH]n3)cc2)cc1	< 70
FC(F)(F)c1cccc(CNC2CCN(CCc3ccccc3)CC2)c1	< 70
O=C(NC1CCCC1)c1ccc(N2CCC(NCc3cccc(C(F)(F)F)c3)CC2)cc1	< 70
CCCc1ccc(S(=O)(=O)Nc2ccc(CN3CCN(CC4CC4)CC3)cc2)cc1	< 70

SMILES	growth inhibition at single dose [%]
Cc1cc(C)n(-c2nc(-c3ccccc3)cc(N3CCOCC3)n2)n1	< 70
CCOc1ccccc1NC(=O)CN1CCN(C(=O)c2ccco2)CC1	< 70
NC(=O)c1ccsc1NC(=O)CSc1ncc(-c2ccccc2)n1-c1ccccc1	< 70
CCc1nc2ccccc2n1CC(O)COc1cc(C)ccc1Cl (centres undefined)	< 70
CC(=O)NCc1ccc(C(=O)Nc2ccccc2O)cc1	< 70
N#Cc1ccc(CN2CCCN(c3ncnc4sccc34)CC2)cc1	< 70
COc1ccc2c(=O)cc(C(Cl)(Cl)Cl)oc2c1	< 70
C=c1ccccc1=C1NN=C(Nc2ccc(F)c(F)c2F)O1	< 70
CO[C@H]1/C=C/O[C@@]2(C)Oc3c(C)c(O)c4c(O)c(/c(=C/NN5CCN(C)CC5)c(O)c4c3C2=O)=N\C(=O)/C(C)=C\C=C/[C@H](C)[C@H](O)[C@@H](C)[C@@H](O)[C@@H](C)[C@H](OC(C)=O)[C@@H]1C	< 70
O=C(CCC1CCCCC1)Nc1cccc(-c2nnc(-c3ccco3)o2)c1	< 70
O=C(CSc1nnc(/C=C/c2ccc(F)cc2)[nH]1)N(c1ccccc1)C1CCCCC1	< 70
CCOC(=O)C1(Cc2ccccc2)CCN(Cc2cccc(OC)c2O)CC1	< 70
COc1cccc(/C=C/c2n[nH]c(=O)c(C#N)c2C)c1	< 70
FC(F)(F)c1ccc(Nc2nnnc3ccccc23)cc1	< 70
Cc1cc(/C=C/C(=O)Nc2nccs2)c(C)n1-c1ccccc1	< 70
COc1ccc(Nc2cc(C)nc(-n3nc(C)cc3C)n2)cc1	< 70
Cc1ccc(-c2cc3c(SCC(=O)Nc4cc(C(F)(F)F)ccc4Cl)nccn3n2)cc1	< 70
CN1CCN(S(=O)(=O)c2ccc(-c3ccc4c(Nc5ccc6nn[nH]c6c5)ccnc4c3)cc2)CC1	< 70
Cc1cc(N)c(N)cc1C	< 70
Cc1cccc(N2CCN(C(=O)c3ccc4[nH]c(C)c(C)c4c3)CC2)c1C	< 70
O=C(Nc1ccccc1O)c1ccc(-c2ccc(Cl)cc2Cl)o1	< 70
CCCCC(O)(c1ccc(Cl)cc1)C(CN1CCOCC1)c1ccc(Cl)cc1 (centres undefined)	< 70
Cn1cc(/C=C/C(=O)Nc2ncc(Cc3ccccc3)s2)cn1	< 70
COc1ccc(N(CCc2cccc(C)n2)C(=O)C2CCCCC2)cc1	< 70

SMILES	growth inhibition at single dose [%]
Cc1c(C)n(Cc2ccc(F)cc2)c2ccc(C(=O)NCc3ccco3)cc12	< 70
CCn1ncc2c(NC3CCOCC3)c(CNC(=O)c3ccnn3C)c(C)nc21	< 70
CC(C)=CCN1CCC(C(=O)Nc2ccc(-c3nc4ccccc4[nH]3)cc2)CC1	< 70
Cn1c(=O)n(C)c2cc(CNCCNc3ccnc4cc(Cl)ccc34)ccc21	< 70
Cc1cccc(-c2nnc(Sc3nc(C)nc4sc5c(c34)CCCC5)n2CC(N)=O)c1	< 70
Cc1cc(C)c2cc(C(=O)NC3CCCCCCC3)[nH]c2c1	< 70
O=C(Nc1ccccc1O)c1ccc(Cn2ccnc2)cc1	< 70
CN(C)CCNC(=O)N1CCCN(c2ncnc3cc(-c4ccccc4)sc23)CC1	< 70
Cc1ccc2[nH]c(C3CCCNC3)c(-c3ccncc3)c2c1 (centres undefined)	< 70
COCC(C)n1c(C)cc(C(=O)COC(=O)c2cccn2C)c1C (centres undefined)	< 70
COc1ccc(-c2c(C)nn3c(N)c(C#N)cnc23)cc1OC	< 70
CN1CCN(c2ncnc3c2[nH]c2ccc(Cl)cc23)CC1	< 70
COc1ccc(C(O)(CCC(C)C)C(CN2CCOCC2)c2ccc(Cl)cc2)cc1 (centres undefined)	< 70
COc1ccc(C2=C(c3ccc(OC)cc3)C3(c4ccccc4)C(=O)C2(c2ccccc2)C2C(=O)N(c4ccc(C)cc4)C(=O)C23)cc1 (centres undefined)	< 70
COc1ccc(C2(C(=O)Nc3ccc(Br)cc3)CCCC2)cc1	< 70
Cc1cc(Nc2ccc3ccccc3c2)n2ncnc2n1	< 70
CCn1nc(C(=O)NCc2ccc(OC)cc2)c2c1CCN(C(=O)c1cc(C)n[nH]1)C2	< 70
CC(C)(C)c1ccc(C(=O)NCCOc2ccccc2F)cc1	< 70
Cc1nc(-c2ccccn2)nc(N2CCCC2)c1Cl	< 70
COc1ccc(CNC(=O)c2cc3c(=O)n4ccccc4nc3n(CCc3ccccc3)c2=N)cc1	< 70
CC(C)C(C(=O)Nc1ccc(S(=O)(=O)N(C)C)cc1)c1ccc(Cl)cc1 (centres undefined)	< 70
COc1cccc(Cn2c(Oc3ccccc3)nc3c2c(=O)n(C)c(=O)n3C)c1	< 70
CCc1cccc2c(C(=O)COC(=O)C34CC5CC(CC(O)(C5)C3)C4)c[nH]c12	< 70
COc1cc(OC)c(N(C)C(=O)c2cc3c(s2)-c2ccccc2S(=O)(=O)C3)cc1Cl	< 70

SMILES	growth inhibition at single dose [%]
CC(C)(CN)c1nc(-c2ccc(Cl)c(O)c2)c(-c2ccnc(N)n2)[nH]1	< 70
CCCCCCOC(=O)C1=C(C)NC(=O)NC1c1ccccc1F (centres undefined)	< 70
Cc1ccc(CSCc2ccc(C(=O)NC3CC3)o2)cc1	< 70
c1ccc(Nc2nc(-c3ccc4c(c3)OCCO4)cs2)nc1	< 70
CCOC(=O)c1cnc2ccc(OC)cc2c1Nc1ccc(N2CCN(C)CC2)cc1	< 70
CCCOc1ccc(C(F)(F)F)cc1NC(=O)c1nc2nccc(C)n2n1	< 70
CCOc1cc(Cl)c(C(C)NC(=O)c2cccc(OC)c2)cc1OCC (centres undefined)	< 70
N#Cc1ccc(NC(=O)Nc2ccc(C#N)cc2)cc1	< 70
C[C@H](C(N)=O)N1CCCC[C@@H]1c1ccc(OCc2cccc(F)c2)cc1	< 70
CN1CCN(c2ccc(Nc3c4ccccc4nc4ccccc34)cc2)CC1	< 70
CCOc1ccc2cc(-c3nn(CC4CCN(C)CC4)c4ncnc(N)c34)ccc2c1	< 70
CN1CCN(c2nc(Nc3ccc(O)cc3)nc3ccccc23)CC1	< 70
CN(C)c1ccc(CNc2ncnc3ccccc23)cc1	< 70
N=C(N)Nc1ccc(-c2ccc(-c3ccc(N=C(N)N)c(Cl)c3)o2)cc1Cl	< 70
Cc1sc2ncnc(Sc3nc4ccccc4[nH]3)c2c1C	< 70
CCN(CC)CCN1COc2c(cc(Cl)c3cccnc23)C1	< 70
COCCN1COc2c(cc(Cl)c3cccnc23)C1	< 70
C=CCc1c(C)nc2ccccc2c1O	< 70
COc1ccc(CN2CCN(C(=O)c3ccc(-n4cccn4)cc3)CC2)cc1F	< 70
CC(=O)NCCc1nc2ccccc2n1Cc1ccc(C(C)C)cc1	< 70
COCCn1c(C)nc2ccccc2c1=O	< 70
Cc1cccc(-c2nc(Nc3ccncn3)c3sccc3n2)n1	< 70
